Assay in all cases: LYPLA1/LYPLA2 inhibition with serine hydrolase anti-target selectivity, late-stage follow-up, selectivity assay for LYPLA1/LYPLA2 inhibitor project, cell lysate, mouse brain membrane proteome, FP-Rh fluorescence, powders (AID 743117)
Assay [1] addresses Monoacylglycerol lipase ABHD6 (Mus musculus) (UniProt Q8R2Y0). The following applies: gel-based ABPP FP-Rh fluorescence, measured here: ABHD6 Selectivity, anti-target concentration >50% inhibition, stronger effect = lower value.
The test system of another assay is LYPLA2. Conditions: gel-based ABPP FP-Rh fluorescence, at 100 µM (top of the series).
Another assay concerns LYPLA1. Conditions: gel-based ABPP FP-Rh fluorescence, at 100 µM (top of the series).
For another assay, the system named is MAGL Selectivity. Conditions: gel-based ABPP FP-Rh fluorescence, measured here: MAGL Selectivity, anti-target concentration >50% inhibition, stronger effect = lower value.
A further assay has as its target ABHD4 Selectivity (UniProt Q8VD66). The following applies: gel-based ABPP FP-Rh fluorescence, measured here: ABHD4 Selectivity, anti-target concentration >50% inhibition, stronger effect = lower value.
The test system of another assay is FAAH Selectivity. Conditions: gel-based ABPP FP-Rh fluorescence, measured here: FAAH Selectivity, anti-target concentration >50% inhibition, stronger effect = lower value.
The subject of a further assay is ABHD12 Selectivity. The following applies: gel-based ABPP FP-Rh fluorescence, measured here: ABHD12 Selectivity, anti-target concentration >50% inhibition, stronger effect = lower value.
For the next assay, the system named is APEH Selectivity. Conditions: gel-based ABPP FP-Rh fluorescence, measured here: APEH Selectivity, anti-target concentration >50% inhibition, stronger effect = lower value.

The source made the active and inactive calls.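 How the source made its calls: active means 50% or more inhibition of both lipases LYPLA1 and LYPLA2, with off-target enzymes other than ABHD6 below 50%; inactive means below 50% on either lipase, or hitting an off-target enzyme.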

Sequence of Monoacylglycerol lipase ABHD6 (Mus musculus) (Q8R2Y0 whole entry, looked up): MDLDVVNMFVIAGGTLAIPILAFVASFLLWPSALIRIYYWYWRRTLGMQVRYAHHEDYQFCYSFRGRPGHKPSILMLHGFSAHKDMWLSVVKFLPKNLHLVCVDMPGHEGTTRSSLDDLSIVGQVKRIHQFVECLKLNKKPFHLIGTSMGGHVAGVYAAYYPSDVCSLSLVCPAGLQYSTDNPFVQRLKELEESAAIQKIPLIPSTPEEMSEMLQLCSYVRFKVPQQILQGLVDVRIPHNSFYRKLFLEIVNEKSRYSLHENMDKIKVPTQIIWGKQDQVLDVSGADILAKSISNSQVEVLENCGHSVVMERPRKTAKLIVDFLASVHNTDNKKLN
Sequence of ABHD4 Selectivity (Q8VD66 whole entry, looked up): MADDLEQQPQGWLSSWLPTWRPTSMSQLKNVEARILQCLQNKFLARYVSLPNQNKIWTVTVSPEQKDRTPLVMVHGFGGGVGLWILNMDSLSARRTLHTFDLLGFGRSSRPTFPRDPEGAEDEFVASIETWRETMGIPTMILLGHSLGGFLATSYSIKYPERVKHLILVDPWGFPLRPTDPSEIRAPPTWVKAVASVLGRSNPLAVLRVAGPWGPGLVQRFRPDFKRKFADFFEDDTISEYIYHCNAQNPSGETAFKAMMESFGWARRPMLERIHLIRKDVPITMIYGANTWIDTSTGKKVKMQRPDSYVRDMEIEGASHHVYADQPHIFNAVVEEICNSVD

For the molecule `CC(C)(C)OC(=O)N1CCN2C(=O)N(OC(=O)N3CCN(C(c4ccc(Cl)cc4)c4ccc(Cl)cc4)CC3)C(=O)C2C1` (stereo not given), the concentration for >50% inhibition in assay [1] is 0.1 µM. Also, the inhibition in the assay with LYPLA2 and with LYPLA1 was 60% (inactive) throughout.
Take `O=C(ON1C(=O)C2CN(CCc3ccccc3)CCN2C1=O)N1CCC(CCc2ccc(Cl)cc2)CC1` (stereo not given): the concentration for >50% inhibition in assay [1] was 0.1 µM; in the assay with MAGL Selectivity, 10 µM; at ABHD4 Selectivity, 10 µM; in the assay on FAAH Selectivity it was 10 µM. For the same molecule, the inhibition in the assay with LYPLA2 and in the assay on LYPLA1 was 100% (inactive) in each case.
Regarding `CC(C)(C)OC(=O)N1CCN2C(=O)N(OC(=O)N3CCC(C(=O)Nc4ccccc4)CC3)C(=O)C2C1` (stereo not given), the concentration for >50% inhibition in assay [1] came to 0.1 µM; in the assay on FAAH Selectivity, 100 µM. The inhibition is 25% (inactive) in the assay on LYPLA2 and 50% (inactive) in the assay on LYPLA1.
Regarding `O=C(ON1C(=O)C2CN(C(=O)c3ccc(F)c([N+](=O)[O-])c3)CCN2C1=O)N1CCC(CCc2ccc(Cl)cc2)CC1` (stereo not given), the concentration for >50% inhibition in assay [1] worked out at 0.1 µM; with MAGL Selectivity, 100 µM; in the assay on FAAH Selectivity, 10 µM; in the assay on ABHD12 Selectivity, 10 µM. For the same molecule, the inhibition with LYPLA2 and with LYPLA1 was 100% each time.
With `COc1ccc(C(=O)N2CCN3C(=O)N(OC(=O)N4CCC(CCc5ccc(Cl)cc5)CC4)C(=O)C3C2)cc1` (stereo not given), the concentration for >50% inhibition came to 0.1 µM in assay [1], 10 µM in the assay on MAGL Selectivity, 10 µM with FAAH Selectivity and 10 µM in the assay on ABHD12 Selectivity. In addition, the inhibition in the assay with LYPLA2 and in the assay with LYPLA1 was 100% each time.
As for `O=C(ON1C(=O)C2CN(Cc3ccc(Br)cc3)CCN2C1=O)N1CCC(CCc2ccc(Cl)cc2)CC1` (stereo not given), the concentration for >50% inhibition in assay [1] was 0.1 µM; in the assay with MAGL Selectivity, 100 µM; at ABHD4 Selectivity, 1 µM; in the assay on FAAH Selectivity, 1 µM. The inhibition with LYPLA2 and in the assay on LYPLA1 was 90% (inactive) in each case.
Regarding `CC(C)(C)OC(=O)N1CCN2C(=O)N(OC(=O)N3CCN(CCc4ccccc4)CC3)C(=O)C2C1` (stereo not given), the concentration for >50% inhibition turned out to be 0.1 µM in assay [1], 100 µM in the assay on FAAH Selectivity and 100 µM with ABHD12 Selectivity. In addition, the inhibition is 75% (inactive) with LYPLA2 and 90% (inactive) in the assay on LYPLA1.
The molecule `CC(C)(C)OC(=O)N1CCN2C(=O)N(OC(=O)N3CCOCC3Cc3ccccc3)C(=O)C2C1` (stereo not given) registered a concentration for >50% inhibition in assay [1] of 0.1 µM. The inhibition with LYPLA2 and in the assay on LYPLA1 was 0% (inactive) in each case.
In the case of `CC(C)(C)OC(=O)N1CCN2C(=O)N(OC(=O)N3CCCCC3)C(=O)C2C1` (stereo not given), the concentration for >50% inhibition in assay [1] amounted to 0.1 µM; in the assay on APEH Selectivity it was 100 µM. In addition, the inhibition with LYPLA2 and in the assay on LYPLA1 was 25% (inactive) throughout.
For the molecule `O=C(ON1C(=O)C2CN(C(=O)c3ccc(Br)cc3)CCN2C1=O)N1CCC(CCc2ccc(Cl)cc2)CC1` (stereo not given), the concentration for >50% inhibition was determined as 0.1 µM in assay [1]; 100 µM in the assay on MAGL Selectivity; 100 µM at ABHD4 Selectivity; 10 µM in the assay with FAAH Selectivity; 10 µM in the assay on ABHD12 Selectivity. The inhibition in the assay with LYPLA2 and with LYPLA1 was 100% in each case.
In the case of `O=C(ON1C(=O)C2CN(C(=O)N3CCCC3)CCN2C1=O)N1CCC(CCc2ccc(Cl)cc2)CC1` (stereo not given), the concentration for >50% inhibition in assay [1] is 0.1 µM; with MAGL Selectivity, 100 µM; on ABHD4 Selectivity it was 100 µM; in the assay with FAAH Selectivity it was 1 µM; in the assay on ABHD12 Selectivity, 100 µM. For the same molecule, the inhibition in the assay with LYPLA2 and in the assay with LYPLA1 was 100% throughout.
For `O=C(Cc1ccccc1)N1CCN2C(=O)N(OC(=O)N3CCC(CCc4ccc(Cl)cc4)CC3)C(=O)C2C1` (stereo not given), the concentration for >50% inhibition in assay [1] is 0.1 µM; in the assay on MAGL Selectivity it was 10 µM; in the assay on FAAH Selectivity it was 1 µM. Further, the inhibition in the assay with LYPLA2 and with LYPLA1 was 100% throughout.
Take `CC(C)(C)OC(=O)N1CCN2C(=O)N(OC(=O)N3CCC(CCc4ccc(Cl)cc4)CC3)C(=O)C2C1` (stereo not given): the concentration for >50% inhibition in assay [1] amounted to 0.1 µM; with MAGL Selectivity, 100 µM; in the assay on FAAH Selectivity it was 1 µM; in the assay on ABHD12 Selectivity it was 10 µM. Also, the inhibition with LYPLA2 and with LYPLA1 was 100% each time.
In turn, `CCN(C(=O)C1CCN(C(=O)ON2C(=O)C3CN(C(=O)OC(C)(C)C)CCN3C2=O)CC1)c1ccccc1` (stereo not given) came in with a concentration for >50% inhibition in assay [1] of 0.1 µM. Further, the inhibition with LYPLA2 and in the assay with LYPLA1 was 100% (inactive) throughout.
Consider `O=C(ON1C(=O)C2CN(C(=O)N3CCCCC3)CCN2C1=O)N1CCC(CCc2ccc(Cl)cc2)CC1` (stereo not given), for which the concentration for >50% inhibition in assay [1] turned out to be 0.1 µM; in the assay on MAGL Selectivity, 10 µM; at ABHD4 Selectivity, 10 µM; in the assay with FAAH Selectivity it was 1 µM; with ABHD12 Selectivity, 10 µM. Further, the inhibition with LYPLA2 and with LYPLA1 was 100% throughout.
On to `Cc1ccc(C(=O)N2CCN3C(=O)N(OC(=O)N4CCC(CCc5ccc(Cl)cc5)CC4)C(=O)C3C2)cc1` (stereo not given), for which the concentration for >50% inhibition was 0.1 µM in assay [1], 100 µM in the assay on MAGL Selectivity, 10 µM in the assay with FAAH Selectivity and 10 µM in the assay with ABHD12 Selectivity. For the same molecule, the inhibition in the assay on LYPLA2 and in the assay on LYPLA1 was 100% throughout.
As to `O=C(ON1C(=O)C2CN(C(=O)N3CCOCC3)CCN2C1=O)N1CCC(CCc2ccc(Cl)cc2)CC1` (stereo not given), the concentration for >50% inhibition worked out at 0.1 µM in assay [1], 100 µM with MAGL Selectivity, 10 µM with FAAH Selectivity and 100 µM in the assay with ABHD12 Selectivity. Besides, the inhibition with LYPLA2 and in the assay with LYPLA1 was 100% throughout.
`COC(=O)C1CCN(C(=O)ON2C(=O)C3CN(C(=O)OC(C)(C)C)CCN3C2=O)CC1` (stereo not given) displayed a concentration for >50% inhibition in assay [1] of 0.1 µM. For the same molecule, the inhibition in the assay with LYPLA2 and in the assay with LYPLA1 was 25% (inactive) each time.
With `CC(C)(C)CC(=O)N1CCN2C(=O)N(OC(=O)N3CCC(CCc4ccc(Cl)cc4)CC3)C(=O)C2C1` (stereo not given), the concentration for >50% inhibition in assay [1] turned out to be 0.1 µM; in the assay with MAGL Selectivity it was 10 µM; on ABHD4 Selectivity, 100 µM; in the assay on FAAH Selectivity it was 1 µM; in the assay on ABHD12 Selectivity it was 10 µM. Further, the inhibition in the assay with LYPLA2 and in the assay with LYPLA1 was 100% in each case.
For `CN(C)c1ccc(C(=O)N2CCN3C(=O)N(OC(=O)N4CCC(CCc5ccc(Cl)cc5)CC4)C(=O)C3C2)cc1` (stereo not given), the concentration for >50% inhibition in assay [1] was 0.1 µM; with FAAH Selectivity, 10 µM; in the assay on ABHD12 Selectivity, 10 µM. In addition, the inhibition in the assay on LYPLA2 and in the assay with LYPLA1 was 100% each time.

As a reminder, the inhibition is how much of the control response was suppressed.

Values taken from PubChem BioAssay AID743117 (The Scripps Research Institute Molecular Screening Center, 2013).
